Reference: article PMC12561670, “Isolation of Dual-Active Drugs with Anticancer and Antibacterial Activities That Target Both Tubulin and FtsZ” (Antibiotics, 2025)
Like-named read-outs stand apart in the source and are kept apart here.

Legend:
FtsZ = biological target: T1, FtsZ (Staphylococcus aureus, UniProt P0A031); experiment: Sedimentation assay of FtsZ polymerization; assay type: biochemical; conditions: 50 μM compound, 5 μM FtsZ, 37 °C 30 min
T1 construct: His tag; made in house; host or cells: E. coli BL21(DE3)
T1 sequence (P0A031 1-390): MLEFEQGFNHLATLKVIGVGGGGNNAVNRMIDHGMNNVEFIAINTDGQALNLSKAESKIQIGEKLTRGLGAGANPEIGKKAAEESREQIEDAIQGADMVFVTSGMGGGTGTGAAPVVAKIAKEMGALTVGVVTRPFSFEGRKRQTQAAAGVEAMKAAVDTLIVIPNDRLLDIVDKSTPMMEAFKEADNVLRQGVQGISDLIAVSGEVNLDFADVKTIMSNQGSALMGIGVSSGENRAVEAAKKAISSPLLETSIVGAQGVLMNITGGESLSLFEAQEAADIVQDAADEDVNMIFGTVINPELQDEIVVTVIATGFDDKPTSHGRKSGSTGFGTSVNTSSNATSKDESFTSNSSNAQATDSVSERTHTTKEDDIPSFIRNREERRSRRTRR
Method: Sedimentation assay was also conducted for the influence of compounds on FtsZ polymerization. FtsZ (5 μM) was polymerized in a buffer containing 25 mM Pipes buffer (pH 6.8) and 3 mM MgSO4 in the […] of DMSO or compounds (50 μM). After the addition of 4 mM GTP, the sample was instantly placed at 37 °C for 30 min. Then, the polymers were collected by centrifuging for 30 min at 25 °C. The protein concentration in the supernatant was determined using the Bradford quantification method, with bovine serum albumin (BSA) as the standard. The experiment was performed in triplicate, and the average absorbance is shown.

FtsZ protein = biological target: T2, FtsZ protein (Staphylococcus aureus, UniProt P0A031); experiment: Affinity assay by SPR technology; assay type: binding, S. aureus
T2 construct: His tag; made in house; host or cells: E. coli BL21(DE3)
Method: FtsZ Pre-Enrichment: FtsZ purified protein was dissolved in deionized water and prepared into a 1 g/L protein stock solution. Afterwards, protein concentration was diluted to 50 mg/L, respectively, using four different pH acetate buffer solutions (pH 4.0, 4.5, 5.0, 5.5). Subsequently, samples were injected, and the response values of protein FtsZ under different pH conditions were detected using the Biacore pre-enrichment system to determine the optimal protein coupling conditions.
FtsZ Coupling: Before coupling, the CM5 chip was first activated by EDC/NHS solution for 7 min; then, protein coupling was carried out, with a coupling time of 10 min and a protein flow rate of 10 μL/min; finally, the unreacted active sites on the chip were blocked by ethanolamine for 7 min.
The compounds were dissolved in DMSO, and then diluted to 50 μM with PBS (final concentration of DMSO was 5%). The mobile phase was a PBS solution containing 5% DMSO. The response value of the samples flowing through the surface of the FtsZ protein was analyzed by the Biacore T200 system. The monomer compounds with a higher response value to FtsZ (higher than or equal to the positive control) were screened as candidate compounds.
The concentration of candidate compounds was diluted by gradient with a double ratio, with concentration ranging from 0 to 64 μM (the final concentration of DMSO was 5%). Then, the binding response value was obtained. Kinetic curves were drawn according to the dose–effect relationship between the response value and the concentration of candidate compounds, and the binding specificity of candidate compounds and FtsZ was determined according to the curve fitting. Thus, small molecular monomers that can bind specifically to the FtsZ protein were found.

B. subtilis = experiment: Phase-contrast microscopy, cell division inhibition; assay type: cell-based; conditions: 64 μM, 4 h
Method: Cell Division Inhibitory Screening Assay Cell division inhibitory activity of compounds was conducted as below. […] Afterwards, 1 mL of the sample was centrifuged at 15,000× g for 3 min at room temperature, and the bacterial pellets were washed with 1 mL of PBS before re-centrifugation. The final bacterial pellets obtained were resuspended in 5 mL PBS. 20 μL of bacterial suspension was transferred to slides for microscopy. Cell morphology was estimated by using the phase-contrast method of Olympus IX71 microscopy (Olympus Corporation, Tokyo, Japan) with 400× magnification.

E. Coli BL21 (DE3) = experiment: Visualization of Z-ring in bacterial cells (GFP-tagged FtsZ); assay type: cell-based; conditions: 64 μM, 4 h
Method: The assay was carried out using a strain of E.coli BL21 (DE3) containing an IPTG-inducible plasmid, which can produce the green fluorescence protein (GFP)-tagged FtsZ to make the Z-ring visible. An overnight culture of E.coli was replated into 1 mL fresh MHB medium and incubated at 37 °C. Until OD600 = 0.3, 40 μM IPTG (Isopropyl β-D-1-thiogalactopyranoside) was added. […] After that, they were centrifuged and re-suspended in PBS, and then observed using the Leica SP-5 laser scanning confocal microscopy. Z-ring analysis was performed by employing LAS-AF-Lite software 2.6.0.

Hela = experiment: Antiproliferative activity, CCK8; assay type: cell-based; conditions: Homo sapiens
Method: (§1) Antiproliferative activities of compounds were detected by employing the CCK8 method. HepG2, MCF-7, and Hela cells were cultured to log phase in DMEM medium supplemented with 10% fetal bovine serum. Cells were diluted to 2 × 10^4 cells/mL, and 100 µL of the obtained suspension was seeded in each well of the 96-well microplates, which were then cultured at 37 °C overnight. Subsequently, cells were treated with compounds at different concentrations. After co-culturing for 48 h, wells were washed with PBS three times and filled with 100 μL DMEM complete medium, which contained CCK8. After culturing for 2 h at 37 °C, the absorbance of measured and recorded on an ELISA reader (BioTek-Synergy 4, Winooski, VT, USA) at a test wavelength of 450 nm. Three replicate wells were employed for each drug concentration, and each assay was conducted at least three times.

HepG2 = experiment: Antiproliferative activity, CCK8; assay type: cell-based; conditions: Homo sapiens, HepG2, 48 h, read-out: cell viability HepG2
Method: as §1

MCF-7 = experiment: Antiproliferative activity, CCK8; assay type: cell-based; conditions: Homo sapiens
Method: as §1

A549 = experiment: Anticancer activity IC50; assay type: cell-based; conditions: Homo sapiens, abstract only
Cytotoxicity, CCK8 = assay type: cell-based; conditions: human, 12 h
Method: The absorbance of 450 nm was measured in an ELISA reader (BioTek-Synergy 4, USA). Then, cell viability was calculated, and the corresponding images were drawn with GraphPad Prism 9.

[1] = 48 h, read-out: cell viability Hela
[2] = MCF7, 48 h, read-out: cell viability MCF-7

CC(C)(C)c1[nH]cnc1/C=c1\[nH]c(=O)/c(=C/c2ccccc2)[nH]c1=O [Compound 23, Plinabulin]
effect on FtsZ sedimentation (polymerization amount) (FtsZ): markedly enhanced protein sedimentation | Kd (FtsZ protein): 15300 nM | Chi^2 (FtsZ protein; SPR fit): 0.234 | Rmax (FtsZ protein; SPR, CM5 chip): 11.82 RU | cell morphology of B. subtilis (elongation) (B. subtilis): the most pronounced effect | Z-ring assembly (E. Coli BL21 (DE3)): disturbed the Z-ring assembly | viability at 0.1 µM (Hela; [1]): 26% | viability at 1 µM (Hela; [1]): 19% | IC50 (Hela; abstract only): 10 nM | viability at 0.1 µM (HepG2): 30.5% | viability at 1 µM (HepG2): 11.5% | viability at 0.1 µM (MCF-7; [2]): 27.5% | viability at 1 µM (MCF-7; [2]): 10% | IC50 (MCF-7; MCF7, abstract only): 20 nM | IC50 (A549): 12 nM | viability at 100 µM (Cytotoxicity, CCK8; read-out: cell viability HT293 (293T)): 79% | viability at 100 µM (Cytotoxicity, CCK8; read-out: cell viability LO2): 81%
